# In patent US20250290117A1, “MOLECULAR PHENOTYPIC ANTIMICROBIAL SUSCEPTIBILITY TESTING” (priority 2024, published 2025):
# Key:
# [1] = test system: pathogen of the specimen; assay: Traditional culture-based antimicrobial susceptibility test (comparison of Table 7); assay type: cell-based; conditions: E. coli isolate 1189
# Experimental: Table 7 illustrates the results of an example antimicrobial agent susceptibility test of the current application versus a traditional culture-based antimicrobial agent susceptibility test at multiple incubation timepoints, in accordance with one or more embodiments of the disclosure. These specimens were tested with direct PCR (e.g., no extraction DNA purification step prior to PCR). […] Result Reporting to Healthcare Providers. The results from the antimicrobial exposure are reported to the ordering healthcare provider. This information can be utilized by the healthcare provider when selecting an antimicrobial regimen for their individual patient based on these individual specimen results and patient specific factors. […] The current standard of care for antimicrobial susceptibility testing involves the growth, isolation, and exposure of pathogens to antimicrobials. This traditional culture and sensitivity process can take multiple days to obtain results, limiting the ability of healthcare providers to receive timely results to make actionable changes in patient care or management. Healthcare providers desire a method to obtain antimicrobial susceptibility results with quicker turn-around-time. This application discloses a molecular-based phenotypic antimicrobial susceptibility method which involves pathogen exposure to a panel of antimicrobial agents at their specified minimum inhibitory concentration breakpoints for sensitivity. This method allows for more timely antimicrobial susceptibility results.
# [2] = test system: P. aeruginosa; assay: Traditional culture-based antimicrobial susceptibility test; assay type: cell-based, Pseudomonas aeruginosa; conditions: P. aeruginosa isolate MRSN1938
# Experimental: (§1) Table 5 illustrates the results of an example antimicrobial agent susceptibility test of the current application versus a traditional culture-based antimicrobial agent susceptibility test for multiple specimens with different pathogens, in accordance with one or more embodiments of the disclosure. These specimens were tested with direct PCR (e.g., no extraction DNA purification step prior to PCR). As in Tables 1, 2, and 3, the results of the test of the current application are similar to the results from the traditional test.
# (§2) Result Reporting to Healthcare Providers. The results from the antimicrobial exposure are reported to the ordering healthcare provider. This information can be utilized by the healthcare provider when selecting an antimicrobial regimen for their individual patient based on these individual specimen results and patient specific factors. […] The current standard of care for antimicrobial susceptibility testing involves the growth, isolation, and exposure of pathogens to antimicrobials. This traditional culture and sensitivity process can take multiple days to obtain results, limiting the ability of healthcare providers to receive timely results to make actionable changes in patient care or management. Healthcare providers desire a method to obtain antimicrobial susceptibility results with quicker turn-around-time. This application discloses a molecular-based phenotypic antimicrobial susceptibility method which involves pathogen exposure to a panel of antimicrobial agents at their specified minimum inhibitory concentration breakpoints for sensitivity. This method allows for more timely antimicrobial susceptibility results.
# [3] = test system: Staphylococcus epidermidis; assay: Molecular phenotypic antimicrobial susceptibility test (semi-quantitative PCR after antimicrobial exposure; extraction/DNA purification prior to PCR); assay type: cell-based
# Experimental: Detection of Molecular Phenotypic Antimicrobial Susceptibility. Disclosed herein are the methods for the detection of phenotypic antimicrobial susceptibility via molecular methods. The present invention describes how a specimen 100 with a known microbial load is incubated and then exposed to a panel of antimicrobial agents to determine sensitivity (prevention of growth) or resistance (allowance of growth) to the specific antimicrobial agents tested utilizing molecular methods.
# Sample Collection. Specimens 100 are collected from patients using sterile collection processes that are employed in routine clinical care. Specimens are transported to the testing facility in boric acid preservative. Specimens 100 are subsequently divided into a first sample 104 and a second sample 108.
# Preparation of the Specimens for Testing. The specimens 100 are put through a pathogen identification process using PCR technology (e.g., using the first sample 104). The process for pathogen isolation includes steps of harvesting the pathogen (e.g., via centrifugation), isolating pathogen DNA via a DNA isolation and/or purification kit, and performing PCR on the pathogen DNA via PCR components (e.g., primers, enzymes, buffers) as would be known to the skilled artisan. Simultaneously, an additional aliquot of the same specimen (e.g., the second sample 108) is placed with liquid culture media and incubated for 4-6 hours. This aliquot is used for antimicrobial susceptibility testing if indicated based on the pathogen detection results. After pathogen identification is completed and if more than 10,000 cells/mL of bacteria (e.g., eligible bacteria) are detected in the source specimen, the second sample 108 then enters the antimicrobial susceptibility phase of testing. Specimens 100 with lower pathogen loads could also be utilized in the antibiotic susceptibility phase of testing with or without a longer incubation period.
# Preparation of Antimicrobial Susceptibility Testing Plates. Antimicrobial solutions are prepared at known concentrations. The specific antimicrobials and their concentrations are selected based on the pathogen of interest and the described antimicrobial resistance breakpoints for that specimen pathogen and antimicrobial combination. These antimicrobials have been selected based on those commonly utilized by healthcare providers in routine clinical care for the specific type of suspected infection. The number and types of antimicrobials utilized can be customized based on the infection source, pathogen detected, patient-specific factors such as allergies or other health conditions (e.g., chronic kidney disease or concurrent medication use), or healthcare provider preferences such as antimicrobial availability or cost.
# The antimicrobial solutions are prepared in liquid culture media (such as Muller Hinton Broth) to achieve the desired antimicrobial concentration and are then stored at −80° C. until use. For a given specimen, each antimicrobial is tested at a single or multiple antimicrobial concentration(s) which is its established breakpoints for sensitivity. The antimicrobial solutions are prepared and plated out for each specific pathogen. This allows ease of use on the day of testing after defrosting the plate 112. Table 1, which illustrates the results of molecular phenotypic antimicrobial susceptibility testing when more than one organism is present in the source specimen, provides an example of an antimicrobial plate 112 prepared for this purpose. Of note, control wells containing only culture media are present on all plates 112. This allows for evaluation of pathogen load when no antimicrobial is present.
# Specimen Exposure to Antimicrobial Agents. The 1 mL aliquot of the specimen 100 previously mixed with culture media and incubated is obtained. Using optical density measurements as a guide, the specimen 100 is diluted to 0.5 McFarland. […]
# [4] = test system: S. aureus; assay: Traditional culture-based antimicrobial susceptibility test; assay type: cell-based, Staphylococcus aureus; conditions: S. aureus isolate NR-46412 HIP13170
# Experimental: as §1, §2
# [5] = S. epidermidis isolate 1, Ct at control (average) 10.611
# [6] = S. epidermidis isolate 1, at sensitive breakpoint
# [7] = S. epidermidis isolate 2, Ct at control (average) 11.861
# [8] = S. epidermidis isolate 2, at sensitive breakpoint
# [9] = S. epidermidis isolate 3, Ct at control (average) 12.941
# [10] = S. epidermidis isolate 3, at sensitive breakpoint
# [11] = S. epidermidis isolate 4, Ct at control (average) 11.861
# [12] = S. epidermidis isolate 4, at sensitive breakpoint
# [13] = S. epidermidis isolate 5, Ct at control (average) 12.941
# [14] = S. epidermidis isolate 5, at sensitive breakpoint
compound,measurement,setting,value
CC1(C)S[C@@H]2[C@H](NC(=O)[C@H](N)c3ccccc3)C(=O)N2[C@H]1C(=O)O [Ampicillin],Traditional Culture Result,[1],Resistant
Cc1nnc(SCC2=C(C(=O)O)N3C(=O)[C@@H](NC(=O)Cn4cnnn4)[C@H]3SC2)s1 [Cefazolin],Traditional Culture Result,[1],Resistant
CO/N=C(\C(=O)N[C@@H]1C(=O)N2C(C(=O)[O-])=C(C[N+]3(C)CCCC3)CS[C@H]12)c1csc(N)n1 [Cefepime],Traditional Culture Result,[2],Sensitive
same,Ct at Sensitive Breakpoint,[3]; [5],11.785
same,Molecular Antimicrobial Susceptibility Result,[3]; [6],Resistant
same,Ct at Sensitive Breakpoint,[3]; [7],8.669
same,Molecular Antimicrobial Susceptibility Result,[3]; [8],Resistant
same,Ct at Sensitive Breakpoint,[3]; [9],8.646
same,Molecular Antimicrobial Susceptibility Result,[3]; [10],Resistant
same,Ct at Sensitive Breakpoint,[3]; [11],8.418
same,Molecular Antimicrobial Susceptibility Result,[3]; [12],Resistant
same,Ct at Sensitive Breakpoint,[3]; [13],8.474
same,Molecular Antimicrobial Susceptibility Result,[3]; [14],Resistant
same,Traditional Culture Result,[1],Sensitive
CO[C@@]1(NC(=O)Cc2cccs2)C(=O)N2C(C(=O)O)=C(COC(N)=O)CS[C@@H]21 [Cefoxitin],Traditional Culture Result,[4],Resistant
same,Traditional Culture Result,[1],Resistant
CO/N=C(\C(=O)N[C@@H]1C(=O)N2C(C(=O)O)=C(CSc3nc(=O)c(=O)[nH]n3C)CS[C@H]12)c1csc(N)n1 [Ceftriaxone],Traditional Culture Result,[1],Resistant
O=C(O)c1cn(C2CC2)c2cc(N3CCNCC3)c(F)cc2c1=O [Ciprofloxacin],Traditional Culture Result,[2],Resistant
same,Traditional Culture Result,[4],Resistant
same,Traditional Culture Result,[1],Sensitive
C[C@@H](O)[C@H]1C(=O)N2C(C(=O)O)=C(S[C@@H]3CN[C@H](C(=O)N(C)C)C3)[C@H](C)[C@H]12 [Meropenem],Traditional Culture Result,[2],Resistant*
same,Traditional Culture Result,[1],Sensitive
CN[C@H](CC(C)C)C(=O)N[C@H]1C(=O)N[C@@H](CC(N)=O)C(=O)N[C@H]2C(=O)N[C@H]3C(=O)N[C@H](C(=O)N[C@H](C(=O)O)c4cc(O)cc(O)c4-c4cc3ccc4O)[C@H](O)c3ccc(c(Cl)c3)Oc3cc2cc(c3O[C@@H]2O[C@H](CO)[C@@H](O)[C@H](O)[C@H]2O[C@H]2C[C@](C)(N)[C@H](O)[C@H](C)O2)Oc2ccc(cc2Cl)[C@H]1O [Vancomycin],Ct at Sensitive Breakpoint,[3]; [5],12.950
same,Molecular Antimicrobial Susceptibility Result,[3]; [6],Sensitive (Antimicrobial wells with pathogen load detected below the control wells (typically >2 cycle thresholds later) may be reported as Sensitive)
same,Ct at Sensitive Breakpoint,[3]; [7],18.235
same,Molecular Antimicrobial Susceptibility Result,[3]; [8],Sensitive (Antimicrobial wells with pathogen load detected below the control wells (typically >2 cycle thresholds later) may be reported as Sensitive)
same,Ct at Sensitive Breakpoint,[3]; [9],18.173
same,Molecular Antimicrobial Susceptibility Result,[3]; [10],Sensitive (Antimicrobial wells with pathogen load detected below the control wells (typically >2 cycle thresholds later) may be reported as Sensitive)
same,Ct at Sensitive Breakpoint,[3]; [11],20.001
same,Molecular Antimicrobial Susceptibility Result,[3]; [12],Sensitive (Antimicrobial wells with pathogen load detected below the control wells (typically >2 cycle thresholds later) may be reported as Sensitive)
same,Ct at Sensitive Breakpoint,[3]; [13],8.719
same,Molecular Antimicrobial Susceptibility Result,[3]; [14],Resistant
same,Traditional Culture Result,[4],Resistant
Gentamicin,Traditional Culture Result,[4],Resistant
same,Traditional Culture Result,[1],Sensitive
Piperacillin/Tazobactam,Traditional Culture Result,[2],Sensitive
same,Traditional Culture Result,[1],Sensitive
Trimethoprim/Sulfamethoxazole [TMP/SMX],Ct at Sensitive Breakpoint,[3]; [5],10.79
same,Molecular Antimicrobial Susceptibility Result,[3]; [6],Resistant
same,Ct at Sensitive Breakpoint,[3]; [7],10.503
same,Molecular Antimicrobial Susceptibility Result,[3]; [8],Resistant
same,Ct at Sensitive Breakpoint,[3]; [9],11.341
same,Molecular Antimicrobial Susceptibility Result,[3]; [10],Resistant
same,Ct at Sensitive Breakpoint,[3]; [11],10.970
same,Molecular Antimicrobial Susceptibility Result,[3]; [12],Resistant
same,Ct at Sensitive Breakpoint,[3]; [13],12.620
same,Molecular Antimicrobial Susceptibility Result,[3]; [14],Resistant
same,Traditional Culture Result,[4],Sensitive
same,Traditional Culture Result,[1],Sensitive
